Experimental data published in patent publication US11932657B2, “Heterocyclic compound” (priority 2018, dated 2024).

Key:
[1] = molecular target: T1, aryl hydrocarbon receptor (AhR) (Homo sapiens, UniProt P35869); assay: AhR reporter gene assay (aryl hydrocarbon receptor antagonist activity, DRE-Luc HepG2 cells, TCDD-stimulated luciferase); assay type: cell-based
T1 construct: DRE-Luc HepG2 cells subcultured in a 225 cm^2 flask; endogenous in cells; host or cells: HepG2 (ATCC), stably transfected with the reporter hCYP1A1/pGL4.27 (DRE-Luc HepG2)
T1 sequence (P35869 11-848): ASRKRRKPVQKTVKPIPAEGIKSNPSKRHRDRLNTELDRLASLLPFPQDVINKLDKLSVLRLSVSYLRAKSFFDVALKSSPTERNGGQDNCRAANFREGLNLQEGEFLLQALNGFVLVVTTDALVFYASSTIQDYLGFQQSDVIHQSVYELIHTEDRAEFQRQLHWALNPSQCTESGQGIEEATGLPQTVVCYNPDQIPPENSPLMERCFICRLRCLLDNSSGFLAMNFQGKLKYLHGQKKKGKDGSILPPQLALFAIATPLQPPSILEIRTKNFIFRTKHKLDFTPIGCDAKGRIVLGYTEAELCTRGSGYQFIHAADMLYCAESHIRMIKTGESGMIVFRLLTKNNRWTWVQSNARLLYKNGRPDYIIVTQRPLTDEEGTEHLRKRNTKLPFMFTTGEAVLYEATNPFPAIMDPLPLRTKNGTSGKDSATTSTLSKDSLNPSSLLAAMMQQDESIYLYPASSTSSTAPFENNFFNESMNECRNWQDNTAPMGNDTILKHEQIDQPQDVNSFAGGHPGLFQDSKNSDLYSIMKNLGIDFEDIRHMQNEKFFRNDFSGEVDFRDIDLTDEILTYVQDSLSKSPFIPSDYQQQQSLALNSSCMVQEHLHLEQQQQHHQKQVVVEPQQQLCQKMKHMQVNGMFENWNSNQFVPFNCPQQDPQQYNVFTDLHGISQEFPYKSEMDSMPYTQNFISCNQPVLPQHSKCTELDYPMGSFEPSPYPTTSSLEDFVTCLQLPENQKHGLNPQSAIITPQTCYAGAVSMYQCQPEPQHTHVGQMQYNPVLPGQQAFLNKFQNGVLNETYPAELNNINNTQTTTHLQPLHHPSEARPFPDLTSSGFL
Procedure: Test Example 1 (Aryl Hydrocarbon Receptor Antagonist Activity)
An expression vector, hCYP1A1/pGL4.27 was introduced into HepG2 cells (derived from American Type Culture Collection (ATCC)) that were seeded in 6-well plates (#3810-006 (Iwaki)) at 1.2×10^6 cells/well, using Lipofectamine 3000 (#100022050 (Invitrogen)). Referring to Garrion P M et al., Fundam Appl Toxicol, 30, 194 (1996), the vector hCYP1A1/pGL4.27 incorporated the human CYP1A1 promotor region including dioxin responsive element (DRE) region of the AhR binding region into the XhoI-BglII restriction enzyme site of pGL4.27 (#E8451 (Promega)). After 24 hours, medium-1 was replaced, and after 48 hours, the medium-1 containing hygromycin B (200 to 1000 μg/mL) was subjected to drug treatment. Culturing using the medium containing hygromycin B was continued for about 1 month to clone 24 clones showing drug resistance. A cell line showing high reporter activity was selected (DRE-Luc HepG2) from drug resistant lines using as an indicator luciferase activity (Dual-Glo Luciferase substrate, #E297A (Promega)) relative to an AhR agonist, 2,3,7,8-tetrachlorodibenzo-p-dioxin (TCDD) (#ED-901-B (CIL.)).
DRE-Luc HepG2 cells subcultured in a 225 cm^2 flask (#11-0005 (Iwaki)) were washed with PBS (#1419-144 (Gibco), Lot: 1896207), and thereto was added 8 mL of Trypsin-EDTA (0.05%) (#25300-054 (Gibco)). Thereafter, an excessive liquid was removed from the mixture, and the cells were stood at room temperature for 5 minutes. Thereto was added 10 mL of medium-2, the cells were recovered through a cell strainer (#352350 (Falcon), 70 μm), and the number of cells were then counted using a hemocytometer. A cell suspension was prepared at 3×10^5 cells/mL, 100 μL/well of the cell suspension was seeded into a 96-well white plate (#136101, F96 Microwell (Nunc)), and the cells were then cultured in a CO2 incubator (5% CO2, 37° C.). After 24 hours, the medium was aspirated, and thereto was added 100 μL of an assay medium solution including the compound of the present invention, and the cells were cultured in the CO2 incubator (5% CO2, 37° C.). After 24 hours, 11 μL of an assay medium solution including 5×10^−10 M TCDD (#ED-901-B (CIL.)) was added thereto and the cells were cultured in the CO2 incubator (5% CO2, 37° C.). After 24 hours, 50 μL of a reaction substrate (#E253B, Steady-Glo Luciferase substrate (Promega)) for Firefly Luciferase enzyme reaction was added to each well, and after 5 minute-shaking, the light emission intensity was measured with Wallac ARVO 1420sx (PerkinElmer).

[2] = tested on: immortalized megakaryocyte line (SeV2-MKCL); assay: Platelet production: static culturing of immortalized megakaryocyte line; assay type: cell-based; conditions: compound final concentration 0.1 μM, static culturing 6 to 7 days, control (DMSO) set to 1; platelets = CD41, CD42b and CD42a-positive cells
Procedure: Test Example 2 (Platelet Production: Static Culturing)
The immortalized megakaryocyte line (SeV2-MKCL) obtained according to the method described in WO 2016/204256 was washed twice with D-PBS(−) and then cultured in medium not containing doxycycline to terminate forced expression. Culturing was implemented by seeding the cells at 1 mL/well in a 24-well plate (#662160 (Greiner Rio-One)) at a seeding density of 1×10^5 cells/mL followed by static culturing in the medium indicated below.
The medium was obtained by adding the following components to IMDM serving as the basal medium (concentrations indicate final concentrations).
Culturing was implemented under conditions of 37° C. and 5% CO2. At the same time, the compound of the present invention (final concentration 0.1 μM) or DMSO (control) was added and cultured for 6 to 7 days. Thereafter, the number of platelets (CD41, CD42b, and CD42a-positive cells) was measured. The measurement method was as shown below. The same procedure was performed with the control.
A portion of the culture supernatant was harvested 6 to 7 days after culturing to terminate gene expression, and suspended with the following antibodies to stain them. eFluor 450-labeled anti-CD42a antibody (#48-0428-42 (eBioscience)) PE-labeled anti-CD42b antibody (#303906 (BioLegend)) APC-labeled anti-CD41 antibody (#303710 (BioLegend)) The number of platelets was counted using FACSVerse manufactured by BD 30 minutes after the stain reaction. In the measurement of the number of platelets, the number of cells was corrected using Flow-count beads (#7547053 (Beckman Coulter)).
The number of platelets produced from one megakaryocyte cell was calculated based on the number of platelets in the sample obtained by the FACS measurement, and the result was defined as platelet production efficiency (PLT/MK) and used for evaluation of drug efficacy of the compound. In addition, the specific activity at the time when the platelet production efficiency of the control was set to 1 was indicated as fold increase.

Structure (SMILES) | IC50 [1] [nM] | Static (vs veh): fold increase of platelet production efficiency (PLT/MK) [2]
CC1(C)CSc2nc3c(NCCc4ccc(O)c(-c5cccc(F)c5)c4)nc(-c4cncc(C#N)c4)nc3n21 [Example 37] | 0.53 | 2.1
CC1(C)COc2nc3c(NCCc4ccc(O)c(-c5cccc(F)c5F)c4)nc(-c4cncc(F)c4)nc3n21 [Example 11] | 6.4 | 8.5
CC1(C)CSc2nc3c(NCCc4ccc(O)c(-c5cccc(C#N)c5)c4)nc(-c4cncc(F)c4)nc3n21 [Example 57] | 0.39 | 4.9
CC1(C)COc2nc3c(NCCc4ccc(O)c(-c5cc(C#N)ccc5F)c4)nc(-c4cncc(F)c4)nc3n21 [Example 54] | 4.1 | 5.9
CC1(C)CSc2nc3c(NCCc4ccc(O)c(-c5ccccc5F)c4)nc(-c4cncc(C#N)c4)nc3n21 [Example 38] | 0.49 | 4.9
CC1(C)COc2nc3c(NCCc4c[nH]c5ccccc45)nc(-c4cc(F)ccc4F)nc3n21 [Example 87] | 38 | 3.9
CC1(C)COc2nc3c(NCCc4ccc(O)c(-c5csc6ccccc56)c4)nc(-c4cncc(F)c4)nc3n21 [Example 35] | 12 | 6.0
C[C@@H]1CSc2nc3c(NCCc4ccc(O)c(-c5cccc(C#N)c5)c4)nc(-c4cncc(F)c4)nc3n21 [Example 58] | 0.46 | 5.1
C[C@@H]1C[S+]([O-])c2nc3c(NCCc4c[nH]c5ccccc45)nc(-c4cncc(F)c4)nc3n21 (stereo partly drawn) [Example 108] | 4.1 | 6.6
CC1(C)COc2nc3c(NCCc4ccc(O)c(-c5cccc(C(F)(F)F)c5)c4)nc(-c4cncc(F)c4)nc3n21 [Example 16] | 3.9 | 10
Cc1cccc(-c2cc(CCNc3nc(-c4cncc(F)c4)nc4c3nc3n4C(C)(C)CO3)ccc2O)c1 [Example 14] | 11 | 7.9
CC1(C)COc2nc3c(NCCc4ccc(O)c(-c5cncc(F)c5)c4)nc(-c4cncc(F)c4)nc3n21 [Example 43, 2-(5-fluoropyridin-3-yl)-4-[2-[[2-(5-fluoropyridin-3-yl)-8,8-dimethyl-7H-purino[8,9-b][1,3]oxazol-4-yl]amino]ethyl]phenol] | 26 | 7.1
Cc1cncc(-c2nc(NCCc3ccc(O)c(-c4cc(C#N)ccc4F)c3)c3nc4n(c3n2)C(C)(C)CO4)c1 [Example 66] | 8.1 | 4.8
C[C@@H]1CSc2nc3c(NCCc4ccc(O)c(-c5cccc(F)c5)c4)nc(-c4cncc(F)c4)nc3n21 [Example 29] | 0.37 | 8.4
CC1(C)COc2nc3c(NCCc4c[nH]c5ccccc45)nc(-c4cncc(C#N)c4)nc3n21 [Example 92] | 33 | 2.6
CC1(C)COc2nc3c(NCCc4ccc(O)c(-c5cccc(C#N)c5)c4)nc(-c4ccnc(F)c4)nc3n21 [Example 64] | 5.7 | 3.7
CC1(C)COc2nc3c(NCCc4ccc(O)c(-c5cccc(C#N)c5)c4)nc(-c4cncc(F)c4)nc3n21 [Example 17, 3-[5-[2-[[2-(5-fluoropyridin-3-yl)-8,8-dimethyl-7H-purino[8,9-b][1,3]oxazol-4-yl]amino]ethyl]-2-hydroxyphenyl]benzonitrile] | 2.3 | 7.8
CC1(C)COc2nc3c(NCCc4ccc(O)c(-c5cccc(C#N)c5)c4)nc(-c4cncc(C#N)c4)nc3n21 [Example 59] | 2.5 | 5.7
CC1(C)COc2nc3c(NCCc4ccc(O)c(-c5ccccc5)c4)nc(-c4cncc(C#N)c4)nc3n21 [Example 46, 5-[4-[2-(4-hydroxy-3-phenylphenyl)ethylamino]-8,8-dimethyl-7H-purino[8,9-b][1,3]oxazol-2-yl]pyridine-3-carbonitrile] | 9.9 | 5.0
CC1(C)CSc2nc3c(NCCc4ccc(O)c(-c5cccc(F)c5)c4)nc(-c4ccc5nccn5c4)nc3n21 [Example 53] | 1.2 | 5.3
C[C@@H]1CSc2nc3c(NCCc4ccc(O)c(-c5cncc(F)c5)c4)nc(-c4cncc(F)c4)nc3n21 [Example 71] | 4.7 | 7.2
CC1(C)CSc2nc3c(NCCc4ccc(O)c(-c5cccc(C#N)c5)c4)nc(-c4cncc(C#N)c4)nc3n21 [Example 60] | 0.43 | 3.4
CC1(C)COc2nc3c(NCCc4ccc(O)c(-c5cccc(F)c5)c4)nc(-c4cncc(C#N)c4)nc3n21 [Example 36] | 0.7 | 2.7
Cc1cncc(-c2nc(NCCc3c[nH]c4ccccc34)c3nc4n(c3n2)C(C)(C)CS4)c1 [Example 96] | 39 | 2.7
